Reference: patent US20240238380A1, “COMPOSITION FOR COMBINATION THERAPY COMPRISING GROWTH DIFFERENTIATION FACTOR-15 VARIANT AND GLUCAGON-LIKE PEPTIDE-1 RECEPTOR AGONIST” (YUHAN CORPORATION, priority 2021, published 2024)
Marks after values point to notes of the source that are not given here.

What was measured:
Format in all cases: in vivo
[1] = Inhibitory effect on gastric emptying (acetaminophen exposure) in normal rats (Example 8); settings: rats; for gastric emptying (in words): vs. negative control
Experimental: Therefore, this example was performed to investigate the inhibitory effect on gastric emptying when the novel long-acting GDF15 fusion protein was administered at the doses equal to the effective dose, higher than the maximum effective dose, or in combination with a GLP-1 receptor agonist to rats. 6-week-old male SD rats (Orient Bio, Republic of Korea) were purchased from Hallym Lab. Animal Inc., Republic of Korea. Animals were acclimated for 7 days. On the day of drug administration, the rats were grouped based on the average body weight of individual rats (n=5 per group) and fasted for at least 6 hours before oral administration of acetaminophen. Then, 0.1, 1, and 10 nmol/kg of FM9-6+Fc_hole, 10 nmol/kg of semaglutide (long-acting GLP-1 derivative, SEQ ID NO: 114), and combination of FM9-6+Fc_hole and semaglutide (1+10 nmol/kg) were subcutaneously administered. The semaglutide was Ozempic® (semaglutide) from Novo NorDisk. As a negative control drug, D-PBS (normal vehicle) was subcutaneously administered, and as a positive control drug, 30 mg/kg of loperamide was orally administered 45 minutes before acetaminophen administration. On 3, 24 and 72 hours after a single dose of the test articles, acetaminophen was orally administered at 100 mg/kg to rats, and blood samples were collected before and at 30, 60, 90, 120 and 150 minutes after acetaminophen administration. The plasma concentration of acetaminophen was analyzed, and the pharmacokinetic profiles and the systemic exposures of acetaminophen were compared to evaluate the inhibitory effect on gastric emptying among the groups.

[2] = Anti-obesity effect by repeated administration alone and in combination with semaglutide in ob/ob mice (Example 5)
Text: The ob/ob mouse has a mutation in the leptin gene resulting in leptin deficiency, and are characterized by hyperglycemia, insulin resistance, overeating, and obesity. 5-week-old male ob/ob mice (Jackson Laboratory, USA) were purchased from Raon Bio (Animal Inc., Republic of Korea). The ob/ob mice were acclimatized with normal food (Teklad Certified Irradiated Global 18% Protein Rodent Diet, 2918C, Harlan Co., USA) for 4 weeks, and drug treatment was started at 9 weeks of age. On the day before drug treatment, the mice were grouped based on the body weight of individual mice and random blood glucose levels determined by sampling at the tail vein (n=6 per group). Thereafter, 1 and 10 nmol/kg of FM9-6+Fc_hole alone, 10 and 30 nmol/kg of semaglutide alone, and FM9-6+Fc_hole and semaglutide at doses of 1+10 and 10+10 nmol/kg in combination were subcutaneously administered thereto a total of 10 times every 3 days (Q3D), and body weight and food intake were measured every day or every 3 days during the experimental period (29 days). Here, DPBS (Dulbecco's phosphate-buffered saline, Gibco, USA) was administered for vehicle treatment.

[3] = Anti-obesity effect alone and in combination with semaglutide in diet-induced obese (DIO) mice (Example 4); settings: for Change in body weight (%) vs. day 0, Maximum efficacy: 8 weeks
Text: Diet-induced obese (DIO) mice, obtained by feeding mice with high-fat food, are characterized by obesity, hyperglycemia, and insulin resistance. Diet-induced obese mice (Taconic, USA) resulting from feeding C57BL/6N mice with high-fat food (60 kcal % fat, Research Diets, Cat #D12492, USA) for 8 weeks were purchased from Raon Bio (Animal Inc., Republic of Korea). The diet-induced obese mice were additionally fed with 60% high-fat food for 5 weeks after arrival, and then used in the present test. On the day before drug treatment, the mice were grouped based on the average body weight of individual mice (n=6 per group), after which 10 and 30 nmol/kg of FM9-6+Fc_hole alone, 10 and 30 nmol/kg of semaglutide (long-acting GLP-1 derivative, SEQ ID NO: 114) alone as a control drug, and FM9-6+Fc_hole and semaglutide were administered subcutaneously every 2 days (Q2D) for a total of 8 weeks in a combination of 10+10 and 30+30 nmol/kg. The semaglutide that was used in the test was Ozempic® (semaglutide) from Novo NorDisk. Here, for vehicle treatment, DPBS (Dulbecco's phosphate-buffered saline, Gibco, USA) was subcutaneously administered every 2 days (Q2D). Body weight was measured every 2 days from the first day of drug treatment to day 54, and the results thereof are shown in Table 4 below.

[4] = Anti-obesity effect alone and in combination with semaglutide or tirzepatide in DIO mice (Example 7); settings: 10 nmol/kg s.c. Q3D
Text: Diet-induced obese (DIO) mice, obtained by feeding mice with high-fat diet, are characterized by obesity, hyperglycemia, and insulin resistance. Diet-induced obese mice (Taconic, USA) resulting from feeding C57BL/6N mice with high-fat food (60 kcal % fat, Research Diets, Cat #D12492, USA) for 8 weeks were purchased from Raon Bio (Animal Inc., Republic of Korea). The diet-induced obese mice were additionally fed with 60% high-fat food for 5 weeks after arrival, and then used in the present test. On the day before drug treatment, the mice were grouped based on the average body weight of individual mice (n=6 per group), after which 0.1 and 1 nmol/kg of FM9-6+Fc_hole alone, 10 nmol/kg of semaglutide (long-acting GLP-1 derivative, SEQ ID NO: 114) and 10 nmol/kg of tirzepatide (long-acting GLP-1/GIP derivative, SEQ ID NO: 117) alone as control drugs, FM9-6+Fc_hole and semaglutide at doses of 0.1+10 and 1+10 nmol/kg in combination, and FM9-6+Fc_hole and tirzepatide at doses of 1+10 nmol/kg in combination were subcutaneously administered thereto every 3 days (Q3D) for a total of 4 weeks. The semaglutide that was used in the test was Ozempic® (semaglutide) from Novo NorDisk, and the tirzepatide that was used was a material synthesized by MedChemExpress (HY-P1731B, USA). Here, DPBS (Dulbecco's phosphate-buffered saline, Gibco, USA) was administered for vehicle treatment, and, during the experimental period (26 days), body weight was measured every day and food intake was measured every 3 days.

[5] = Anti-obesity and metabolic parameter effects alone and in combination with large dose of semaglutide in ob/ob mice (Example 6); settings: 30 nmol/kg s.c. Q3D
Text: 5-week-old male ob/ob mice (Jackson Laboratory, USA) were purchased from Raon Bio (Animal Inc., Republic of Korea). The ob/ob mice were acclimatized with normal chow or normal chow diet (Teklad Certified Irradiated Global 18% Protein Rodent Diet, 2918C, Harlan Co., USA) for 5 weeks, and drug treatment was started at 10 weeks of age. On the day before drug treatment, the mice were grouped based on the body weight of individual mice and random blood glucose levels determined by sampling at the tail vein (n=6 per group). Thereafter, 1 nmol/kg of FM9-6+Fc_hole alone, 30 nmol/kg of semaglutide alone, and FM9-6+Fc_hole and semaglutide in combination (1+30 nmol/kg) were subcutaneously administered thereto a total of 9 times every 3 days (Q3D), and body weight, food intake, and non-fasting blood glucose were measured every day or every 3 days during the experimental period (24 days). Here, DPBS (Dulbecco's phosphate-buffered saline, Gibco, USA) was administered for vehicle treatment.

Q: Which “AUClast of acetaminophen (μg · min/mL), 3 hr” value ([1]; 10 nmol/kg s.c. single dose, acetaminophen 3 hr after dose) does the source give for semaglutide [reference compound] here?
A: Its value is 266.43*** μg · min/mL.

Q: What about the “AUClast of acetaminophen (μg · min/mL), 24 hr” value ([1]; 10 nmol/kg s.c. single dose, acetaminophen 24 hr after dose) of the same substance?
A: The value was 2577.72 µg·min/mL.

Q: And the “AUClast of acetaminophen (μg · min/mL), 72 hr” value ([1]; 10 nmol/kg s.c. single dose, acetaminophen 72 hr after dose)?
A: Its value is 3354.48 µg·min/mL.

Q: What about the “gastric emptying (in words)” value ([1]; 24 and 72 hours after administration) of the same substance?
A: Its value is “gastric emptying was restored”.

Q: And the “gastric emptying (in words)” value ([1]; 3 hours after administration)?
A: Its value is “inhibition of gastric emptying”.

Q: What about the “Change in body weight (%) vs. ob/ob control, Maximum efficacy” value ([2]; 10 nmol/kg s.c. Q3D) of the same substance?
A: The value was −10.04 (On Day 25)*** %.

Q: What about the “Change in body weight (%) vs. ob/ob control, Efficacy on Day 29” value ([2]; 10 nmol/kg s.c. Q3D) of the same substance?
A: Its value is −6.88* %.

Q: And the “Change in body weight (%) vs. ob/ob control, Maximum efficacy” value ([2]; 30 nmol/kg s.c. Q3D)?
A: The value was −11.38 (On Day 25)**** %.

Q: What about the “Change in body weight (%) vs. ob/ob control, Efficacy on Day 29” value ([2]; 30 nmol/kg s.c. Q3D) of the same substance?
A: The value was −9.92**** %.

Q: What about the “Change in body weight (%) vs. day 0, Maximum efficacy” value ([3]; 10 nmol/kg s.c. Q2D) of the same substance?
A: The value was −26.71 (On Day 30)**** %.

Q: What about the “Change in body weight (%) vs. day 0, Efficacy on Day 54” value ([3]; 10 nmol/kg s.c. Q2D) of the same substance?
A: Its value is −17.34**** %.

Q: What about the “Change in body weight (%) vs. day 0, Maximum efficacy” value ([3]; 30 nmol/kg s.c. Q2D) of the same substance?
A: The value was −28.13 (On Day 21)**** %.

Q: And the “Change in body weight (%) vs. day 0, Efficacy on Day 54” value ([3]; 30 nmol/kg s.c. Q2D)?
A: Its value is −13.40**** %.

Q: And the “Change in body weight (%) vs. day 0, Maximum efficacy” value ([4]; 4 weeks)?
A: The value was −18.95 (On Day 19)**** %.

Q: And the “Change in body weight (%) vs. day 0, Efficacy on Day 26” value ([4]; Day 26)?
A: Its value is −17.69**** %.

Q: What about the “Change in body weight (%) vs. ob/ob control, Efficacy on Day 24” value [5] of the same substance?
A: The value was −10.08**** %.

Q: What about the “Mean of random blood glucose levels (mg/dL), Efficacy on Day 24” value [5] of the same substance?
A: The value was 155.7**** mg/dL.
